The results in this text go back to patent US11046699B2, “Pyrazolo-pyrimidin-amino-cycloalkyl compounds and their therapeutic uses” (RAPT THERAPEUTICS, INC., priority 2018, dated 2021).

pIC50: −log10 of the molar value.

The assay addresses GCN2 (Homo sapiens, UniProt Q9P2K8). Description: GCN2 enzymatic endpoint assay: phosphorylation of GFP-eIF2α measured by TR-FRET (Lanthascreen). Type of assay: biochemical. The note with it: tested as described in Example 77; compound and/or hydrochloride, dihydrochloride or trifluoroacetic acid salt; read-out: IC 50 Activity. Put shortly:
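Kinase activity is measured as phosphorylation of GFP-labelled eIF2α (80 nM) with ATP at 2 μM. Incubation runs 90 minutes at room temperature before EDTA quench and terbium-antibody detection.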
A general note: TR-FRET usually uses a lanthanide donor and a delayed reading to cut background.

GCN2, sequence (Q9P2K8 whole entry): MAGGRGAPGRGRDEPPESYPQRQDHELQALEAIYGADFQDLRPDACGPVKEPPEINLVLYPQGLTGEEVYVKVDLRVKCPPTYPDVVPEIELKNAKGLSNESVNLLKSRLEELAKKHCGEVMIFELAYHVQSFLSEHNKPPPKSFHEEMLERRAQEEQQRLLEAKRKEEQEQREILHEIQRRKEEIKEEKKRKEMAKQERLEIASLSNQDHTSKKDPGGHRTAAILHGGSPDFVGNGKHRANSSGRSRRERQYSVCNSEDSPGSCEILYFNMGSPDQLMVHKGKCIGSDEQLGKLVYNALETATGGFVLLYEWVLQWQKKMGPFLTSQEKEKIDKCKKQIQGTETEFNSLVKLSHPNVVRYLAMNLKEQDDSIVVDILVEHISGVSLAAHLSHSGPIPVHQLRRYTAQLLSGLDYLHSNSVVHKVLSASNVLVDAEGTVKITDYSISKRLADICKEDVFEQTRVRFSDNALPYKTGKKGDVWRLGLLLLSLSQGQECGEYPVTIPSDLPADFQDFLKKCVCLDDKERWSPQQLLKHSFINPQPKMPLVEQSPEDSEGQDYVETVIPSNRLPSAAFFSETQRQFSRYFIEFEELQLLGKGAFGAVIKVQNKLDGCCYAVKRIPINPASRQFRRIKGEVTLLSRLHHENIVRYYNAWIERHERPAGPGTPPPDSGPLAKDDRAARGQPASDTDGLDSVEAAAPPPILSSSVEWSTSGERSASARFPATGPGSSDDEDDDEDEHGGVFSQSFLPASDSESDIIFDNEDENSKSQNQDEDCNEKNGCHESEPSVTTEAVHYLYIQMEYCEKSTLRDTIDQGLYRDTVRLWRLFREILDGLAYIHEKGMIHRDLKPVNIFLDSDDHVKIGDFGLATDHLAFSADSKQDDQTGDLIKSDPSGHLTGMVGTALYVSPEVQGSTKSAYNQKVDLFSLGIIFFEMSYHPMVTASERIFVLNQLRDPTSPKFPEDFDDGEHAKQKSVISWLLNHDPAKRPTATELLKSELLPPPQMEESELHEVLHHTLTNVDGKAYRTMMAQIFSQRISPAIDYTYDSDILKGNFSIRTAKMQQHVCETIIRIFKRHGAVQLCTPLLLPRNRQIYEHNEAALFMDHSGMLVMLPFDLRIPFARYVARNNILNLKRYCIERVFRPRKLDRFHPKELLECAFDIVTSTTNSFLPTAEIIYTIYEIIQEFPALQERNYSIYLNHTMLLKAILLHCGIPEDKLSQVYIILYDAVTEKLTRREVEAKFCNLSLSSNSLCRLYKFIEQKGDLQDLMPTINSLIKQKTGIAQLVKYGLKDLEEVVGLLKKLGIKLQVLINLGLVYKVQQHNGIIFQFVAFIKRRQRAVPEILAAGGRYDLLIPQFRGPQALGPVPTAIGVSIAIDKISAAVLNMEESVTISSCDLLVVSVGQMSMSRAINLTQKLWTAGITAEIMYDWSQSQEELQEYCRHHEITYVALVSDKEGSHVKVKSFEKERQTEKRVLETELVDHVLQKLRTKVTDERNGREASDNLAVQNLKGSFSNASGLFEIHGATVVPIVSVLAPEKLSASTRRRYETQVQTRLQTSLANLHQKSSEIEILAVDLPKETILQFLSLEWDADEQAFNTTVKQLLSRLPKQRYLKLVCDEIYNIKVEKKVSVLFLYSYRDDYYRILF

As for `CNC(=O)C1(C)CC[C@@H](Nc2ncc3c(Br)nn(-c4ccc5nc(C)cc(Cl)c5c4)c3n2)C1` (stereo partly drawn) [(3R)-3-[[3-bromo-1-(4-chloro-2-methyl-6-quinolyl)pyrazolo[3,4-d]pyrimidin-6-yl]amino]-N,1-dimethyl-cyclopentane-carboxamide], the pIC50 is 6.70 to 7.60.
Turning to `CNC(=O)C1(C)CC[C@@H](Nc2ncc3c(Br)nn(-c4ccc5[nH]c(=O)cc(C)c5c4)c3n2)C1` (stereo partly drawn) [(3R)-3-[[3-bromo-1-(4-methyl-2-oxo-1H-quinolin-6-yl)pyrazolo[3,4-d]pyrimidin-6-yl]amino]-N,1-dimethyl-cyclopentanecarboxamide], the pIC50 is 6.70 to 7.60.
In the case of `CNC(=O)C1(C)CC[C@@H](Nc2ncc3c(Br)nn(-c4ccc(-c5cnccn5)cc4)c3n2)C1` (stereo partly drawn) [(3R)-3-[[3-bromo-1-(4-pyrazin-2-ylphenyl)pyrazolo[3,4-d]pyrimidin-6-yl]amino]-N,1-dimethyl-cyclopentanecarboxamide], the pIC50 is 6.70 to 7.60.
Regarding `CNC(=O)C1(C)CC[C@@H](Nc2ncc3c(Br)nn(-c4cc(C#N)c5nccc(C)c5c4)c3n2)C1` (stereo partly drawn) [(3R)-3-[[3-bromo-1-(8-cyano-4-methyl-6-quinolyl)pyrazolo[3,4-d]pyrimidin-6-yl]amino]-N,1-dimethyl-cyclopentane-carboxamide], the pIC50 is more than 7.60.
With `CC1(C(=O)NCC(F)(F)F)CC[C@@H](Nc2ncc3c(Br)nn(-c4cc(F)c5ncccc5c4)c3n2)C1` (stereo partly drawn) [(3R)-3-[[3-bromo-1-(8-fluoro-6-quinolyl)pyrazolo[3,4-d]pyrimidin-6-yl]amino]-1-methyl-N-(2,2,2-trifluoroethyl)cyclo-pentanecarboxamide], the pIC50 is 6.70 to 7.60.
For `CCN(CC)C(=O)C1(C)CC[C@@H](Nc2ncc3c(Br)nn(-c4cc(F)c5ncccc5c4)c3n2)C1` (stereo partly drawn) [(3R)-3-[[3-bromo-1-(8-fluoro-6-quinolyl)pyrazolo[3,4-d]pyrimidin-6-yl]amino]-N,N-diethyl-1-methyl-cyclopentanecarboxamide], the pIC50 was 6.70 to 7.60.
On to `CC1(C(=O)NC2(C#N)CC2)CC[C@@H](Nc2ncc3c(Br)nn(-c4cc(F)c5ncccc5c4)c3n2)C1` (stereo partly drawn) [(3R)-3-[[3-bromo-1-(8-fluoro-6-quinolyl)pyrazolo[3,4-d]pyrimidin-6-yl]amino]-N-(1-cyanocyclopropyl)-1-methyl-cyclopentane-carboxamide], for which the pIC50 is more than 7.60.
`CC1(C(=O)NCC(F)F)CC[C@@H](Nc2ncc3c(Br)nn(-c4cc(F)c5ncccc5c4)c3n2)C1` (stereo partly drawn) [(3R)-3-[[3-bromo-1-(8-fluoro-6-quinolyl)pyrazolo[3,4-d]pyrimidin-6-yl]amino]-N-(2,2-difluoroethyl)-1-methyl-cyclopentane-carboxamide]: the pIC50 is 6.70 to 7.60.
`CC1(C(=O)NCCF)CC[C@@H](Nc2ncc3c(Br)nn(-c4cc(F)c5ncccc5c4)c3n2)C1` (stereo partly drawn) [(3R)-3-[[3-bromo-1-(8-fluoro-6-quinolyl)pyrazolo[3,4-d]pyrimidin-6-yl]amino]-N-(2-fluoroethyl)-1-methyl-cyclopentane-carboxamide]: the pIC50 is 6.70 to 7.60.
As for `CNC(=O)C1(C)CC[C@@H](Nc2ncc3c(Br)nn(-c4ccc5nc(C(C)(C)O)ccc5c4)c3n2)C1` (stereo partly drawn) [(3R)-3-[[3-bromo-1-[2-(1-hydroxy-1-methyl-ethyl)-6-quinolyl]pyrazolo[3,4-d]pyrimidin-6-yl]amino]-N,1-dimethyl-cyclopentane-carboxamide], the pIC50 was 6.70 to 7.60.
`CNC(=O)C1(C)CC[C@@H](Nc2ncc3c(Br)nn(-c4cccc(C(C)(C)O)c4)c3n2)C1` (stereo partly drawn) [(3R)-3-[[3-bromo-1-[3-(1-hydroxy-1-methyl-ethyl)phenyl]pyrazolo[3,4-d]pyrimidin-6-yl]amino]-N,1-dimethyl-cyclopentane-carboxamide]: the pIC50 was 6.70 to 7.60.
With `CNC(=O)C1(C)CC[C@@H](Nc2ncc3c(Br)nn(-c4cc(OC(F)(F)F)cc(C(C)O)c4)c3n2)C1` (stereo partly drawn) [(3R)-3-[[3-bromo-1-[3-(1-hydroxyethyl)-5-(trifluoromethoxy)phenyl]pyrazolo [3,4-d]pyrimidin-6-yl]amino]-N,1-dimethyl-cyclopentanecarboxamide], the pIC50 is 6.70 to 7.60.
The figure for `CNC(=O)C1(CCC#N)CC[C@@H](Nc2ncc3c(Br)nn(-c4ccc(-c5nnc(C)s5)c(CCC#N)c4)c3n2)C1` (stereo partly drawn) [(3R)-3-[[3-bromo-1-[3-(2-cyanoethyl)-4-(5-methyl-1,3,4-thiadiazol-2-yl)phenyl]pyrazolo[3,4-d]pyrimidin-6-yl]amino]-1-(2-cyanoethyl)-N-methyl-cyclopentanecarboxamide] is 6.70 to 7.60; for `CNS(=O)(=O)C1CC[C@@H](Nc2ncc3c(Br)nn(-c4ccc(-c5nnc(C)s5)c(CCC#N)c4)c3n2)C1` (stereo partly drawn) [(3R)-3-[[3-bromo-1-[3-(2-cyanoethyl)-4-(5-methyl-1,3,4-thiadiazol-2-yl)phenyl]pyrazolo[3,4-d]pyrimidin-6-yl]amino]-N-methyl-cyclopentanesulfonamide] it is 6.70 to 7.60.
Consider `CNC(=O)C1(C)CC[C@@H](Nc2ncc3c(Br)nn(-c4cccc(CCCO)c4)c3n2)C1` (stereo partly drawn) [(3R)-3-[[3-bromo-1-[3-(3-hydroxypropyl)phenyl]pyrazolo[3,4-d]pyrimidin-6-yl]amino]-N,1-dimethyl-cyclopentane-carboxamide], for which the pIC50 is 6.70 to 7.60.
As for `CNC(=O)C1(C)CC[C@@H](Nc2ncc3c(Br)nn(-c4cc(CO)cc(OC)c4)c3n2)C1` (stereo partly drawn) [(3R)-3-[[3-bromo-1-[3-(hydroxymethyl)-5-methoxy-phenyl]pyrazolo[3,4-d]pyrimidin-6-yl]amino]-N,1-dimethyl-cyclopentanecarboxamide], the pIC50 was 6.70 to 7.60.
Regarding `CNC(=O)C1(C)CC[C@@H](Nc2ncc3c(Br)nn(-c4cc(C)cc(CO)c4)c3n2)C1` (stereo partly drawn) [(3R)-3-[[3-bromo-1-[3-(hydroxymethyl)-5-methyl-phenyl]pyrazolo[3,4-d]pyrimidin-6-yl]amino]-N,1-dimethyl-cyclopentanecarboxamide], the pIC50 is 6.70 to 7.60.
For the molecule `CNCc1cc(OC(F)(F)F)cc(-n2nc(Br)c3cnc(N[C@@H]4CCC(C)(C(=O)NC)C4)nc32)c1` (stereo partly drawn) [(3R)-3-[[3-bromo-1-[3-(methylaminomethyl)-5-(trifluoromethoxy)phenyl]pyrazolo[3,4-d]pyrimidin-6-yl]amino]-N,1-dimethyl-cyclopentanecarboxamide], the pIC50 was 6.70 to 7.60.
Then `CNC(=O)C1(C)CC[C@@H](Nc2ncc3c(Br)nn(-c4cc(Cl)cc(CO)c4)c3n2)C1` (stereo partly drawn) [(3R)-3-[[3-bromo-1-[3-chloro-5-(hydroxy-methyl)phenyl]pyrazolo[3,4-d]pyrimidin-6-yl]amino]-N,1-dimethyl-cyclopentane-carboxamide], with 6.70 to 7.60; and `CNS(=O)(=O)C1CC[C@@H](Nc2ncc3c(Br)nn(-c4ccc(-c5nnc(C)s5)c(C#N)c4)c3n2)C1` (stereo partly drawn) [(3R)-3-[[3-bromo-1-[3-cyano-4-(5-methyl-1,3,4-thiadiazol-2-yl)phenyl]pyrazolo[3,4-d]pyrimidin-6-yl]amino]-N-methyl-cyclopentanesulfonamide], with 6.70 to 7.60; and `CNC(=O)C1(C)CC[C@@H](Nc2ncc3c(Br)nn(-c4cc(F)cc(CO)c4)c3n2)C1` (stereo partly drawn) [(3R)-3-[[3-bromo-1-[3-fluoro-5-(hydroxymethyl)phenyl]pyrazolo[3,4-d]pyrimidin-6-yl]amino]-N,1-dimethyl-cyclopentanecarboxamide], with 6.70 to 7.60.
As to `CNC(=O)C1(C)CC[C@@H](Nc2ncc3c(Br)nn(-c4ccc(-c5nc(C)no5)cc4)c3n2)C1` (stereo partly drawn) [(3R)-3-[[3-bromo-1-[4-(3-methyl-1,2,4-oxadiazol-5-yl)phenyl]pyrazolo[3,4-d]pyrimidin-6-yl]amino]-N,1-dimethyl-cyclopentanecarboxamide], the pIC50 is 6.70 to 7.60.
Then `CNC(=O)C1(C)CC[C@@H](Nc2ncc3c(Br)nn(-c4ccc(-c5noc(C)n5)cc4)c3n2)C1` (stereo partly drawn) [(3R)-3-[[3-bromo-1-[4-(5-methyl-1,2,4-oxadiazol-3-yl)phenyl]pyrazolo[3,4-d]pyrimidin-6-yl]amino]-N,1-dimethyl-cyclopentanecarboxamide], with 6.70 to 7.60; and `CNC(=O)N1CC[C@@H](Nc2ncc3c(Br)nn(-c4ccc(-c5nnc(C)s5)cc4)c3n2)C1` [(3R)-3-[[3-bromo-1-[4-(5-methyl-1,3,4-thiadiazol-2-yl)phenyl]pyrazolo [3,4-d]pyrimidin-6-yl]amino]-N-methyl-pyrrolidine-1-carboxamide], with 6.70 to 7.60; and `CNC(=O)C1(CCC#N)CC[C@@H](Nc2ncc3c(Br)nn(-c4ccc(-c5nnc(C)s5)cc4)c3n2)C1` (stereo partly drawn) [(3R)-3-[[3-bromo-1-[4-(5-methyl-1,3,4-thiadiazol-2-yl)phenyl]pyrazolo[3,4-d]pyrimidin-6-yl]amino]-1-(2-cyanoethyl)-N-methyl-cyclopentanecarboxamide], with 6.70 to 7.60.
Take `CNC(=O)C1(CCS(C)(=O)=O)CC[C@@H](Nc2ncc3c(Br)nn(-c4ccc(-c5nnc(C)s5)cc4)c3n2)C1` (stereo partly drawn) [(3R)-3-[[3-bromo-1-[4-(5-methyl-1,3,4-thiadiazol-2-yl)phenyl]pyrazolo[3,4-d]pyrimidin-6-yl]amino]-N-methyl-1-(2-methylsulfonylethyl)cyclopentane-carboxamide]: the pIC50 was 6.70 to 7.60.
Take `CNS(=O)(=O)C1CC[C@@H](Nc2ncc3c(Br)nn(-c4ccc(-c5nnc(C)s5)cc4)c3n2)C1` (stereo partly drawn) [(3R)-3-[[3-bromo-1-[4-(5-methyl-1,3,4-thiadiazol-2-yl)phenyl]pyrazolo[3,4-d]pyrimidin-6-yl]amino]-N-methyl-cyclopentanesulfonamide]: the pIC50 was 6.70 to 7.60.
Take `CNC(=O)C1(C)CC[C@@H](Nc2ncc3c(Br)nn(-c4ccc(Cn5ccnc5)cc4)c3n2)C1` (stereo partly drawn) [(3R)-3-[[3-bromo-1-[4-(imidazol-1-ylmethyl)phenyl]pyrazolo[3,4-d]pyrimidin-6-yl]amino]-N,1-dimethyl-cyclopentanecarboxamide]: the pIC50 is 6.70 to 7.60.
Take `CNC(=O)C1(C)CC[C@@H](Nc2ncc3c(Br)nn(-c4ccc(-c5cnn(CCOC)c5)cc4)c3n2)C1` (stereo partly drawn) [(3R)-3-[[3-bromo-1-[4-[1-(2-methoxyethyl)pyrazol-4-yl]phenyl]pyrazolo[3,4-d]pyrimidin-6-yl]amino]-N,1-dimethyl-cyclopentanecarboxamide]: the pIC50 is 6.70 to 7.60.
